# Assay results taken from US7396837B2, “Antitumoral analogs of lamellarins” (Pharma Mar, S.A.U., priority 2002, dated 2008).
# Read-outs that look alike come from different tables or passages of the source.
# Columns and labels:
# Assay type in all cases: cell-based
# K-562 = assay: SRB colorimetric cell growth inhibition assay, K-562; settings: for GI50: GI=growth inhibition, read-out: GI50 K-562; for CC50: cell killing (cytotoxic effect)
# Outline: (§1)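 Human tumour cells were exposed continuously to the test sample, and growth and viability were quantified by sulforhodamine B staining. Means ± SD came from triplicate wells, and GI, TGI (cytostatic) and LC (cell killing) parameters were derived.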
# IGROV-ET = assay: SRB colorimetric cell growth inhibition assay, IGROV-ET (ET-743 resistant); settings: for GI50: GI=growth inhibition, read-out: GI50 IGROV-ET; for CC50: cell killing (cytotoxic effect)
# Outline: as §1
# PANC-1 = assay: SRB colorimetric cell growth inhibition assay, PANC-1; settings: for GI50: GI=growth inhibition, read-out: GI50 PANC-1; for CC50: cell killing (cytotoxic effect)
# Outline: as §1
# SK-BR-3 = assay: SRB colorimetric cell growth inhibition assay, SK-BR-3; settings: for GI50: GI=growth inhibition, read-out: GI50 SK-BR-3; for CC50: cell killing (cytotoxic effect)
# Outline: as §1
# LNCaP = assay: SRB colorimetric cell growth inhibition assay, LNCaP; settings: for GI50: GI=growth inhibition, read-out: GI50 LN-caP; for CC50: cell killing (cytotoxic effect)
# Outline: as §1
# HeLa-APL = assay: SRB colorimetric cell growth inhibition assay, HeLa-APL (aplidine resistant); settings: for GI50: read-out: GI50 HELA-APL; for CC50: cell killing (cytotoxic effect)
# Outline: as §1
# DU-145 = assay: SRB colorimetric cell growth inhibition assay, DU-145; settings: for GI50: GI=growth inhibition, read-out: GI50 DU-145; for CC50: cell killing (cytotoxic effect)
# Outline: as §1
# HeLa = assay: SRB colorimetric cell growth inhibition assay, HeLa; settings: for GI50: GI=growth inhibition, read-out: GI50 HELA; for CC50: cell killing (cytotoxic effect)
# Outline: as §1
# IGROV = assay: SRB colorimetric cell growth inhibition assay, IGROV; settings: IGROV; for GI50: GI=growth inhibition, read-out: GI50 IGROV; for CC50: cell killing (cytotoxic effect)
# Outline: as §1
# SK-MEL-28 = assay: SRB colorimetric cell growth inhibition assay, SK-MEL-28; settings: for GI50: GI=growth inhibition, read-out: GI50 MEL-28; for CC50: cell killing (cytotoxic effect)
# Outline: as §1
# A-549 = assay: SRB colorimetric cell growth inhibition assay, A-549; settings: for GI50: GI=growth inhibition, read-out: GI50 A-549; for CC50: cell killing (cytotoxic effect)
# Outline: as §1
# HT-29 = assay: SRB colorimetric cell growth inhibition assay, HT-29; settings: for GI50: GI=growth inhibition, read-out: GI50 HT-29; for CC50: cell killing (cytotoxic effect)
# Outline: as §1
# LoVo = assay: SRB colorimetric cell growth inhibition assay, LoVo; settings: for GI50: GI=growth inhibition, read-out: GI50 LOVO; for CC50: cell killing (cytotoxic effect)
# Outline: as §1
# LoVo-Dox = assay: SRB colorimetric cell growth inhibition assay, LoVo-Dox (MDR); settings: for GI50: GI=growth inhibition, read-out: GI50 LOVO-DOX; for CC50: cell killing (cytotoxic effect)
# Outline: as §1
smiles,measurement,setting,value
COc1cc(-c2c3c4cc(OC)c(OC(=O)[C@H](C)N)cc4oc(=O)c3n3ccc4cc(O)c(OC)cc4c23)ccc1O.Cl [Compound 240],GI50,K-562; K-562,0.124 µM
same,CC50,"K-562; K-562, read-out: LC50 K-562",2.09 µM
same,TGI K-562,"K-562; K-562, total growth inhibition (cytostatic effect)",4.50E−07 Molar
same,GI50,IGROV-ET; IGROV-ET,0.0824 µM
same,CC50,"IGROV-ET; IGROV-ET, read-out: LC50 IGROV-ET",12.9 µM
same,TGI IGROV-ET,"IGROV-ET; IGROV-ET, total growth inhibition (cytostatic effect)",3.66E−07 Molar
same,GI50,PANC-1; PANC-1,0.0705 µM
same,CC50,"PANC-1; PANC-1, read-out: LC50 PANC-1",8.86 µM
same,TGI PANC-1,"PANC-1; PANC-1, total growth inhibition (cytostatic effect)",6.82E−07 Molar
same,GI50,SK-BR-3; SK-BR-3,0.0593 µM
same,CC50,"SK-BR-3; SK-BR-3, read-out: LC50 SK-BR-3",16.5 µM
same,TGI SK-BR-3,"SK-BR-3; SK-BR-3, total growth inhibition (cytostatic effect)",3.43E−07 Molar
same,GI50,LNCaP; LN-caP,4.09 µM
same,CC50,"LNCaP; LN-caP, read-out: LC50 LN-caP",16.5 µM
same,TGI LN-caP,"LNCaP; LN-caP, total growth inhibition (cytostatic effect)",1.65E−05 Molar
same,GI50,"HeLa-APL; HELA-APL, GI=growth inhibition",0.341 µM
same,CC50,"HeLa-APL; HELA-APL, read-out: LC50 HELA-APL",7.61 µM
same,TGI HELA-APL,"HeLa-APL; HELA-APL, total growth inhibition (cytostatic effect)",1.40E−06 Molar
same,GI50,DU-145; DU-145,0.0606 µM
same,CC50,"DU-145; DU-145, read-out: LC50 DU-145",16.5 µM
same,TGI DU-145,"DU-145; DU-145, total growth inhibition (cytostatic effect)",1.34E−07 Molar
same,GI50,HeLa; HELA,0.0575 µM
same,CC50,"HeLa; HELA, read-out: LC50 HELA",1.4 µM
same,TGI HELA,"HeLa; HELA, total growth inhibition (cytostatic effect)",1.49E−07 Molar
same,GI50,IGROV,0.136 µM
same,CC50,IGROV; read-out: LC50 IGROV,3.64 µM
same,TGI IGROV,IGROV; total growth inhibition (cytostatic effect),5.22E−07 Molar
same,GI50,SK-MEL-28; MEL-28,0.0997 µM
same,CC50,"SK-MEL-28; MEL-28, read-out: LC50 MEL-28",1.44 µM
same,TGI MEL-28,"SK-MEL-28; MEL-28, total growth inhibition (cytostatic effect)",3.81E−07 Molar
same,GI50,A-549; A-549,0.126 µM
same,CC50,"A-549; A-549, read-out: LC50 A-549",1.51 µM
same,TGI A-549,"A-549; A-549, total growth inhibition (cytostatic effect)",4.70E−07 Molar
same,GI50,HT-29; HT-29,1.64 µM
same,CC50,"HT-29; HT-29, read-out: LC50 HT-29",16.5 µM
same,TGI HT-29,"HT-29; HT-29, total growth inhibition (cytostatic effect)",1.59E−05 Molar
same,GI50,LoVo; LOVO,0.17 µM
same,CC50,"LoVo; LOVO, read-out: LC50 LOVO",1.52 µM
same,TGI LOVO,"LoVo; LOVO, total growth inhibition (cytostatic effect)",5.09E−07 Molar
same,GI50,LoVo-Dox; LOVO-DOX,0.461 µM
same,CC50,"LoVo-Dox; LOVO-DOX, read-out: LC50 LOVO-DOX",16.5 µM
same,TGI LOVO-DOX,"LoVo-Dox; LOVO-DOX, total growth inhibition (cytostatic effect)",1.15E−06 Molar
COc1cc(-c2c3c4cc(OC)c(OC(=O)[C@@H](N)CO)cc4oc(=O)c3n3ccc4c(OC(=O)[C@@H](N)CO)c(OC)c(OC)cc4c23)ccc1OC(=O)[C@@H](N)CO [Compound 9],GI50,"K-562; Homo sapiens, K562, K-562",0.0473 µM
same,IC (TGI),"K-562; Homo sapiens, K562, K-562, total growth inhibition (cytostatic effect), read-out: TGI K-562",0.311 µM
same,CC50,"K-562; Homo sapiens, K562, read-out: LC50 K-562, K-562",4.18 µM
same,GI50,"IGROV-ET; Homo sapiens, IGROV-ET",0.132 µM
same,IC (TGI),"IGROV-ET; Homo sapiens, IGROV-ET, total growth inhibition (cytostatic effect), read-out: TGI IGROV-ET",0.98 µM
same,CC50,"IGROV-ET; Homo sapiens, read-out: LC50 IGROV-ET, IGROV-ET",0.493 µM
same,GI50,"PANC-1; Homo sapiens, PANC-1, PANC-1",0.2 µM
same,IC (TGI),"PANC-1; Homo sapiens, PANC-1, PANC-1, total growth inhibition (cytostatic effect), read-out: TGI PANC-1",1.56 µM
same,CC50,"PANC-1; Homo sapiens, PANC-1, read-out: LC50 PANC-1, PANC-1",4.91 µM
same,GI50,"SK-BR-3; Homo sapiens, SK-BR-3, SK-BR-3",0.174 µM
same,IC (TGI),"SK-BR-3; Homo sapiens, SK-BR-3, SK-BR-3, total growth inhibition (cytostatic effect), read-out: TGI SK-BR-3",0.374 µM
same,CC50,"SK-BR-3; Homo sapiens, SK-BR-3, read-out: LC50 SK-BR-3, SK-BR-3",0.806 µM
same,GI50,"LNCaP; Homo sapiens, LNCaP, LN-caP",0.174 µM
same,IC (TGI),"LNCaP; Homo sapiens, LNCaP, LN-caP, total growth inhibition (cytostatic effect), read-out: TGI LN-caP",0.422 µM
same,CC50,"LNCaP; Homo sapiens, LNCaP, read-out: LC50 LN-caP, LN-caP",1.38 µM
same,GI50,HeLa-APL; Homo sapiens,0.282 µM
same,CC50,"HeLa-APL; Homo sapiens, read-out: LC50 HELA-APL, HELA-APL",3.83 µM
same,IC (TGI),"HeLa-APL; Homo sapiens, read-out: TGI HELA-APL",1.23 µM
same,GI50,"DU-145; Homo sapiens, DU-145, DU-145",0.0543 µM
same,IC (TGI),"DU-145; Homo sapiens, DU-145, DU-145, total growth inhibition (cytostatic effect), read-out: TGI DU-145",0.169 µM
same,CC50,"DU-145; Homo sapiens, DU-145, read-out: LC50 DU-145, DU-145",0.615 µM
same,CC50,"HeLa; Homo sapiens, HeLa, read-out: LC50 HELA, HELA",4.06 µM
same,IC (TGI),"HeLa; Homo sapiens, HeLa, read-out: TGI HELA",0.459 µM
same,GI50,"HeLa; Homo sapiens, HeLa",0.107 µM
same,CC50,"IGROV; Homo sapiens, read-out: LC50 IGROV, IGROV",3 µM
same,GI50,IGROV; Homo sapiens,0.182 µM
same,IC (TGI),"IGROV; Homo sapiens, total growth inhibition (cytostatic effect), read-out: TGI IGROV",0.909 µM
same,GI50,"SK-MEL-28; Homo sapiens, SK-MEL-28, MEL-28",0.134 µM
same,IC (TGI),"SK-MEL-28; Homo sapiens, SK-MEL-28, MEL-28, total growth inhibition (cytostatic effect), read-out: TGI MEL-28",0.516 µM
same,CC50,"SK-MEL-28; Homo sapiens, SK-MEL-28, read-out: LC50 MEL-28, MEL-28",2.11 µM
same,GI50,"A-549; Homo sapiens, A549, A-549",0.323 µM
same,IC (TGI),"A-549; Homo sapiens, A549, A-549, total growth inhibition (cytostatic effect), read-out: TGI A-549",1.15 µM
same,CC50,"A-549; Homo sapiens, A549, read-out: LC50 A-549, A-549",6.76 µM
same,GI50,"HT-29; Homo sapiens, HT-29, HT-29",1.61 µM
same,IC (TGI),"HT-29; Homo sapiens, HT-29, HT-29, total growth inhibition (cytostatic effect), read-out: TGI HT-29",3.28 µM
same,CC50,"HT-29; Homo sapiens, HT-29, read-out: LC50 HT-29, HT-29",6.66 µM
same,CC50,"LoVo; Homo sapiens, LoVo, read-out: LC50 LOVO, LOVO",2.3 µM
same,GI50,"LoVo; Homo sapiens, LoVo",0.243 µM
same,IC (TGI),"LoVo; Homo sapiens, LoVo, total growth inhibition (cytostatic effect), read-out: TGI LOVO",0.584 µM
same,GI50,"LoVo-Dox; Homo sapiens, LOVO-DOX",0.388 µM
same,IC (TGI),"LoVo-Dox; Homo sapiens, LOVO-DOX, total growth inhibition (cytostatic effect), read-out: TGI LOVO-DOX",1.14 µM
same,CC50,"LoVo-Dox; Homo sapiens, read-out: LC50 LOVO-DOX, LOVO-DOX",3.63 µM
